pIC50, pKi: −log10 of the molar value.

Chain of GCN2 kinase (Q9P2K8 whole entry): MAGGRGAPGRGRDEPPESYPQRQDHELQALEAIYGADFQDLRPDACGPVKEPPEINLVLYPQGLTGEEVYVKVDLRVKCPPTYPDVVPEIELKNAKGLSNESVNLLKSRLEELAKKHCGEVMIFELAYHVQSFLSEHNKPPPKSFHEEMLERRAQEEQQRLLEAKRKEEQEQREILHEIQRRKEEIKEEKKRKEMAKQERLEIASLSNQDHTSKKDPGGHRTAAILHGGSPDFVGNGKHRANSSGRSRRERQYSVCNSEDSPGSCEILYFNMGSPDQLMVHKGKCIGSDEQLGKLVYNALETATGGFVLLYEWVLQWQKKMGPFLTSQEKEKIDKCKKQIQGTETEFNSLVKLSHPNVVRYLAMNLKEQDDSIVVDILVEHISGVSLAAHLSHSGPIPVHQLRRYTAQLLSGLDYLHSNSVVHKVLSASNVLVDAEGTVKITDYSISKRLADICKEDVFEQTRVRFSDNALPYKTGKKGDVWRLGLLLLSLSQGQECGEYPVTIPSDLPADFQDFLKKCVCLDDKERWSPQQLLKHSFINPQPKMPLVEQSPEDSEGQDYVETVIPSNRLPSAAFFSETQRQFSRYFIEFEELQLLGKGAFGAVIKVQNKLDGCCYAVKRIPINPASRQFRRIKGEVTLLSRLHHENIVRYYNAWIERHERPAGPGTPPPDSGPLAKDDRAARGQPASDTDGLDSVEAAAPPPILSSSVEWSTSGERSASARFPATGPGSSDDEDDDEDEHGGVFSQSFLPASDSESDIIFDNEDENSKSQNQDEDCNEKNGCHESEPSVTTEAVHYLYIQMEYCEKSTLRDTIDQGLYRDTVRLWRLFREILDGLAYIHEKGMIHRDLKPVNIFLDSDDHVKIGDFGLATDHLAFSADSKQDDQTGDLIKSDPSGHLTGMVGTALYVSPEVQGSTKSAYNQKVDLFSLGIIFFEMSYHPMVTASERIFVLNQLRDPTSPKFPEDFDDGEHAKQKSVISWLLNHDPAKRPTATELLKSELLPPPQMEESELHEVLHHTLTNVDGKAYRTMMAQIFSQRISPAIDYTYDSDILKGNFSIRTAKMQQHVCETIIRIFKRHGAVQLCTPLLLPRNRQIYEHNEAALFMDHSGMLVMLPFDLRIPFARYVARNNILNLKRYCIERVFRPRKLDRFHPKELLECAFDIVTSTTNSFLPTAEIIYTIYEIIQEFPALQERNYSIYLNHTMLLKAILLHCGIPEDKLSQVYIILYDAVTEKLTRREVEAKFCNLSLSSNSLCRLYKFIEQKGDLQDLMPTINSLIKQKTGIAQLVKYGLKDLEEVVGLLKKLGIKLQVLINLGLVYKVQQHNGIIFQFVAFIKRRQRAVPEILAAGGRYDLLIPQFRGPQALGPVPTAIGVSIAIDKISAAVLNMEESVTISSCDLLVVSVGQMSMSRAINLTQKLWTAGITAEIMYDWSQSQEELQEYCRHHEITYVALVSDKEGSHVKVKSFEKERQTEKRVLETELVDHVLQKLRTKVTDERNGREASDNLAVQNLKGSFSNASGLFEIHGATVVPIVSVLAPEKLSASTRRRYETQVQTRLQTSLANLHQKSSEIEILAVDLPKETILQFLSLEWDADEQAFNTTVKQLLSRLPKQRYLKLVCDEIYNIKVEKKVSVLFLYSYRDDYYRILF

The first assay addresses GCN2 kinase (Homo sapiens (Human), UniProt Q9P2K8). Briefly: GCN2 Enzyme Inhibition Assay (Transcreener ADP2 fluorescence polarization). The format is biochemical. Conditions: 280 μM ATP, 200 μM (RS)7 peptide, 4 nM GCN2, 25° C. The method, boiled down:
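At 25 °C, GCN2 kinase (typical final concentration 4 nM) and (RS)7 peptide in Tris-HCl pH 7.5 buffer with MgCl2, NaCl and DTT were preincubated with compound for 10 min, then ATP was added for a 1 h reaction. ADP was read by FP with antibody/Alexa633 tracer. Non-linear tight-binding analysis gave IC50 and apparent Ki.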
In general terms: In fluorescence polarisation assays a small probe gives low polarisation when free and higher when bound to something large.
As to `Cc1[nH]ncc1[C@H]1[C@H](C)N(c2ccnc(-c3cnc4ccc(C(F)(F)F)cn34)n2)CCN1C1COC1` [I-367], the pIC50 is 6.00 to 7.00. Still for that read-out and setting: as for `FC(F)(F)c1ccc2ncc(-c3nccc(N4CCN(CC5COC5)C(c5cn[nH]c5)C4)n3)n2c1` (centres unmarked) [I-374, 3-(4-(4-(oxetan-3-ylmethyl)-3-(1H-pyrazol-4-yl)piperazin-1-yl)pyrimidin-2-yl)-6-(trifluoromethyl)imidazo[1,2-a]pyridine], the figure is over 8.00. On the same count and under the same terms, in the case of `Cc1noc([C@H]2CN(c3ccnc(-c4cnc5ccc(C(F)F)cn45)n3)C[C@@H](C)O2)n1` [I-375, (2R,6R)-4-(2-(6-(difluoromethyl)imidazo[1,2-a]pyridin-3-yl)pyrimidin-4-yl)-2-methyl-6-(3-methyl-1,2,4-oxadiazol-5-yl)morpholine] it was 7.00 to 8.00. On to `CC1C(C(N)=O)NCCN1c1ccnc(-c2cnc3ccc(C(F)F)cn23)n1` (centres unmarked) [I-378, 4-(2-(6-(difluoromethyl)imidazo[1,2-a]pyridin-3-yl)pyrimidin-4-yl)-3-methylpiperazine-2-carboxamide], for which the pIC50 is 7.00 to 8.00.

Compound `CC1CN(c2ccnc(-c3cnc4ccc(C(F)(F)F)cn34)n2)CCC1n1cccn1` (centres unmarked) [I-379, 3-(4-(3-methyl-4-(1H-pyrazol-1-yl)piperidin-1-yl)pyrimidin-2-yl)-6-(trifluoromethyl)imidazo[1,2-a]pyridine] showed a negative logarithm of the IC50 (pIC50) of 7.00 to 8.00. In turn, `CC1C(C(N)=O)NCCN1c1ccnc(-c2cnc3ccc(C(F)(F)F)cn23)n1` (centres unmarked) [I-380, 3-methyl-4-{2-[6-(trifluoromethyl)imidazo[1,2-a]pyridin-3-yl]pyrimidin-4-yl}piperazine-2-carboxamide] gave a pIC50 of over 8.00. In the case of `OCc1cn(C2CCCN(c3ccnc(-c4cnc5ccc(C(F)(F)F)cn45)n3)C2)nn1` (centres unmarked) [I-382, (1-(1-(2-(6-(trifluoromethyl)imidazo[1,2-a]pyridin-3-yl)pyrimidin-4-yl)piperidin-3-yl)-1H-1,2,3-triazol-4-yl)methanol], the pIC50 was 6.00 to 7.00. In turn, `CS(=O)(=O)NCC1C[C@@H]2CC[C@H]1N(c1ccnc(-c3cnc4ccc(C(F)F)cn34)n1)C2` (stereo partly drawn) [I-394, N-(((1R,4S)-2-(2-(6-(difluoromethyl)imidazo[1,2-a]pyridin-3-yl)pyrimidin-4-yl)-2-azabicyclo[2.2.2]octan-6-yl)methyl)methanesulfonamide] showed a pIC50 of 6.00 to 7.00. In turn, `C[C@@H]1CN(c2ccnc(-c3cnc4ccc(C(F)(F)F)cn34)n2)C[C@H](C)N1CC(F)(F)F` [I-410, 3-(4-(cis-3,5-dimethyl-4-(2,2,2-trifluoroethyl)piperazin-1-yl)pyrimidin-2-yl)-6-(trifluoromethyl)imidazo[1,2-a]pyridine] had a pIC50 of 6.00 to 7.00. The same measure, in the same setting: in the case of `FC(F)(F)c1ccc2ncc(-c3nccc(N4CCOC5(CNC5)C4)n3)n2c1` [I-412, 8-(2-(6-(trifluoromethyl)imidazo[1,2-a]pyridin-3-yl)pyrimidin-4-yl)-5-oxa-2,8-diazaspiro[3.5]nonane] it was 6.00 to 7.00; in that of `NC(=O)[C@H]1CN(c2ccnc(-c3cnc4cc(F)c(Cl)cn34)n2)CCN1C1CC1` [I-425, (R)-4-(2-(6-chloro-7-fluoroimidazo[1,2-a]pyridin-3-yl)pyrimidin-4-yl)-1-cyclopropylpiperazine-2-carboxamide], 6.00 to 7.00. Same read-out and setting: as for `CC1C(C(N)=O)NCCN1c1ccnc(-c2cnc3cc(F)c(C4CC4)cn23)n1` (centres unmarked) [I-427, 4-(2-(6-cyclopropyl-7-fluoroimidazo[1,2-a]pyridin-3-yl)pyrimidin-4-yl)-3-methylpiperazine-2-carboxamide], the figure is 7.00 to 8.00; as for `Cc1[nH]ncc1[C@H]1CN(c2ccnc(-c3cnc4cc(F)c(C5CC5)cn34)n2)C[C@H](C)O1` [I-428, (2S,6S)-4-(2-(6-cyclopropyl-7-fluoroimidazo[1,2-a]pyridin-3-yl)pyrimidin-4-yl)-2-methyl-6-(5-methyl-1H-pyrazol-4-yl)morpholine], 7.00 to 8.00.

The assay is the same for the next values; noted with them: Ki(app); 280 μM ATP, 200 μM (RS)7 peptide, 4 nM GCN2, 25° C.
`CC1C(C(N)=O)NCCN1c1ccnc(-c2cnc3ccc(C(F)(F)F)cn23)n1` (centres unmarked) [I-380, 3-methyl-4-{2-[6-(trifluoromethyl)imidazo[1,2-a]pyridin-3-yl]pyrimidin-4-yl}piperazine-2-carboxamide] gave a pKi of over 8.00.

In general, pIC50 refers to the IC50 on a negative log10 scale, so that one unit is a factor of ten. A low value points to a high IC50. A word on the pKi: it is the negative decadic logarithm of the Ki, by convention in mol/L. The low end stands for a large Ki, the high end for a small Ki.

The record behind these values is US10793563B2, “GCN2 inhibitors and uses thereof” (Merck Patent GmbH, priority 2018, dated 2020).
